Earlier results, collected in patent US20210401707A1, “AZOXYSTROBIN IN A SULFATE FREE PERSONAL CARE COMPOSITION” (The Procter & Gamble Company, priority 2020, published 2021).

Structure (SMILES): CO/C=C(/C(=O)OC)c1ccccc1Oc1cc(Oc2ccccc2C#N)ncn1 [Azoxystrobin]
- solubility in water: low solubility in water
